This note sets out measurements from ChEMBL document CHEMBL1144870 (J Med Chem, 2003).

This test deals with T1, Hypoxanthine-guanine phosphoribosyltransferase (Homo sapiens, UniProt P00492).
T1 sequence (P00492 whole entry): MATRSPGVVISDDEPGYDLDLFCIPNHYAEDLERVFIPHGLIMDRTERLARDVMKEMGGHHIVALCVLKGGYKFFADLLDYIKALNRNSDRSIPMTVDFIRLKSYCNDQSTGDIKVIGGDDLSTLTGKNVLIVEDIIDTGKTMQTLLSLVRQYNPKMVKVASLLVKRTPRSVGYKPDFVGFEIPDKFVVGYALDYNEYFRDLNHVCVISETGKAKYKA
Nature of the test: Kinetic inhibition constant of compound with human Hypoxanthine Phosphoribosyltransferase (HPRT).

For the compound `O=C(Nc1cc2c3ccccc3ccc2c2ccccc12)C(Cl)Cl`, the Ki (usually a dissociation constant, usually derived from enzyme kinetics or from competition with a known ligand) came out at 16 µM. In other words, the double-digit micromolar range.
